# Assay: CLEAR OUTCOMES trial: time-to-event cardiovascular efficacy end points
# Type: in vivo, human
# Details: for Primary efficacy endpoint (MACE-4), Hazard Ratio (95% CI): Cox proportional hazards, P 0.004; for Fatal and non-fatal MI, Hazard Ratio (95% CI): P 0.002; for 3-component MACE, Hazard Ratio (95% CI): P 0.006
# Excerpt: The CLEAR OUTCOMES trial was a randomized, placebo-controlled, double-blind trial that enrolled patients at 1250 sites in 32 countries. An independent Data Monitoring Committee reviewed safety and efficacy data during the trial.
# Patients 18 to 85 years of age were eligible for enrollment if they met either of two criteria for increased cardiovascular risk, a prior cardiovascular event (secondary prevention) or clinical features that placed them at high risk for a cardiovascular event (primary prevention). (Nicholls S, Lincoff A M, Bays H E, et al. Rationale and design of the CLEAR-outcomes trial: Evaluating the effect of bempedoic acid on cardiovascular events in patients with statin intolerance. Am Heart J. 2021 May; 235: 104-112) All patients provided written informed consent. Patients had to report statin intolerance due to an adverse effect that started or increased during statin therapy and resolved or improved after statin therapy was discontinued. Patients could be enrolled if they tolerated a very low average daily statin dose (e.g., an average daily dose of rosuvastatin <5 mg, atorvastatin <10 mg, simvastatin <10 mg, lovastatin <20 mg, pravastatin <40 mg, fluvastatin <40 mg, or pitavastatin <2 mg). Other lipid-lowering therapies were permitted, including ezetimibe, niacin, bile acid resins, fibrates, and/or proprotein convertase subtilisin kexin type 9 (PCSK9) inhibitors. Full inclusion and exclusion criteria are provided in Nicholls et al. (Am Heart J. 2021).
# Eligible patients entered a 4-week run-in period during which patients were treated with single-blind placebo. If patients were intolerant to placebo treatment or if adherence was <80% by tablet count, they were not eligible for randomization. Patients who successfully completed the run-in period were randomly assigned in a 1:1 ratio to receive bempedoic acid at an oral dose of 180 mg or matching placebo, administered daily. Beginning 6 months after enrollment, the central laboratory notified the investigator if the patient's LDL-cholesterol level was ≥25% higher than baseline. These patients were counseled on healthy dietary guidelines and reminded to take all lipid-regulating medications. If repeat testing confirmed that LDL-cholesterol value met the threshold criteria, the provider could adjust the lipid-lowering treatment regimen per standard of care and local guidelines.
# The primary end point was the first occurrence of a composite of death from cardiovascular causes, nonfatal myocardial infarction (MI), nonfatal stroke, or coronary revascularization. The first key secondary end point was time to the first occurrence of the composite of cardiovascular death, nonfatal stroke or MI. Further key secondary end points included time to first occurrence of each of the following outcomes tested in hierarchical order, fatal or nonfatal MI, coronary revascularization, fatal or nonfatal stroke, death from cardiovascular causes, and all-cause mortality.
# This was an event-driven trial designed to provide at least 90% power to detect a 15% relative risk reduction for the primary composite end point at an overall two-sided significance level of 0.05. The trial required a minimum of 1620 primary composite events with >24 months of follow-up for all patients and at least 810 first key secondary end points. The average treatment duration was estimated to be 42 months and a lost-to-follow-up rate of 1% per year. Assuming a 3.59% annual event rate in the placebo group, enrollment of 12,600 patients was required, subsequently amended to 14,000. There were no interim efficacy analyses. A hierarchical approach was prespecified to evaluate sequentially each of the six key secondary efficacy end points with statistical significance at each step required to test the next hypothesis, thereby preserving the study-wise Type I error rate at 5%. All analyses were based on the intent-to-treat principle. […]
# [1] = prespecified subgroup, interaction P=0.03
# [2] = vs placebo, listed as bempedoic acid
smiles,measurement,setting,value
"CC(C)(CCCCCC(O)CCCCCC(C)(C)C(=O)O)C(=O)O [Bempedoic Acid, Bempedoic acid]","3-component MACE, % of patients","180 mg oral daily, N = 6992",8.2%
same,"5 component MACE, % of patients","180 mg oral daily, N = 6992",11.9%
same,"All-cause mortality, % of patients","180 mg oral daily, N = 6992",6.2%
same,"All-cause mortality, nonfatal MI, nonfatal stroke, or coronary revascularization, % of patients","180 mg oral daily, N = 6992",13.8%
same,"All-cause mortality, nonfatal MI, nonfatal stroke, or coronary revascularization, number of patients","180 mg oral daily, N = 6992",962 number of patients
same,"All-cause mortality, number of patients","180 mg oral daily, N = 6992",434 number of patients
same,"Coronary revascularization, % of patients","180 mg oral daily, N = 6992",6.2%
same,"Coronary revascularization, number of patients","180 mg oral daily, N = 6992",435 number of patients
same,"Death from cardiovascular causes, % of patients","180 mg oral daily, N = 6992",3.8%
same,"Death from cardiovascular causes, number of patients","180 mg oral daily, N = 6992",269 number of patients
same,"Fatal MI, % of patients","180 mg oral daily, N = 6992",0.4%
same,"Fatal MI, number of patients","180 mg oral daily, N = 6992",29 number of patients
same,"Fatal and non-fatal MI, % of patients","180 mg oral daily, N = 6992",3.7%
same,"Fatal and non-fatal MI, number of patients","180 mg oral daily, N = 6992",261 number of patients
same,"Fatal and non-fatal stroke, % of patients","180 mg oral daily, N = 6992",1.9%
same,"Fatal and non-fatal stroke, number of patients","180 mg oral daily, N = 6992",135 number of patients
same,"Fatal and nonfatal hemorrhagic stroke, % of patients","180 mg oral daily, N = 6992",0.3%
same,"Fatal and nonfatal hemorrhagic stroke, number of patients","180 mg oral daily, N = 6992",20 number of patients
same,"Fatal and nonfatal non-hemorrhagic stroke, % of patients","180 mg oral daily, N = 6992",1.7%
same,"Fatal and nonfatal non-hemorrhagic stroke, number of patients","180 mg oral daily, N = 6992",118 number of patients
same,"Fatal stroke, % of patients","180 mg oral daily, N = 6992",0.3%
same,"Fatal stroke, number of patients","180 mg oral daily, N = 6992",18 number of patients
same,"Hospitalization for unstable angina, % of patients","180 mg oral daily, N = 6992",1.3%
same,"Hospitalization for unstable angina, number of patients","180 mg oral daily, N = 6992",91 number of patients
same,"Non-fatal MI, % of patients","180 mg oral daily, N = 6992",3.4%
same,"Non-fatal MI, number of patients","180 mg oral daily, N = 6992",236 number of patients
same,"Non-fatal stroke, % of patients","180 mg oral daily, N = 6992",1.7%
same,"Non-fatal stroke, number of patients","180 mg oral daily, N = 6992",119 number of patients
same,"Primary efficacy endpoint (MACE-4), % of patients","180 mg oral daily, N = 6992, median follow-up 40.6 months",11.7%
same,"5 component MACE, number of patients","MACE-4 or hospitalization for unstable angina (MACE-5), 180 mg oral daily, N = 6992",831 number of patients
same,"effect on other key secondary end points: time to first occurrence of stroke, death from cardiovascular causes, all-cause mortality",compared with placebo,no significant effects
same,"Primary efficacy endpoint (MACE-4), number of patients","death from cardiovascular causes, nonfatal MI, nonfatal stroke, or coronary revascularization, 180 mg oral daily, N = 6992, median follow-up 40.6 months",819 number of patients
same,"3-component MACE, number of patients","death from cardiovascular causes, nonfatal MI, or nonfatal stroke (MACE-3), 180 mg oral daily, N = 6992",575 number of patients
same,"New-onset type 2 diabetes mellitus, number of patients","n/N in patients with baseline glycemic status of no diabetes, 180 mg oral daily",429/3848
same,"New-onset type 2 diabetes mellitus, % of patients","patients with baseline glycemic status of no diabetes, 180 mg oral daily",(11.1) %
same,"HR for the primary end point, primary prevention population",[1],0.68
same,"HR for the primary end point, secondary prevention population",[1],0.91
same,"5 component MACE, Hazard Ratio (95% CI)",vs placebo,0.86 (0.78-0.94)
same,"All-cause mortality, Hazard Ratio (95% CI)",vs placebo,1.03 (0.90-1.18)
same,"All-cause mortality, nonfatal MI, nonfatal stroke, or coronary revascularization, Hazard Ratio (95% CI)",vs placebo,0.89 (0.82-0.97)
same,"Death from cardiovascular causes, Hazard Ratio (95% CI)",vs placebo,1.04 (0.88-1.24)
same,"Fatal MI, Hazard Ratio (95% CI)",vs placebo,1.38 (0.79-2.42)
same,"Fatal and non-fatal stroke, Hazard Ratio (95% CI)",vs placebo,0.85 (0.67-1.07)
same,"Fatal and nonfatal hemorrhagic stroke, Hazard Ratio (95% CI)",vs placebo,2.21 (1.01-4.85)
same,"Fatal and nonfatal non-hemorrhagic stroke, Hazard Ratio (95% CI)",vs placebo,0.78 (0.61-0.99)
same,"Fatal stroke, Hazard Ratio (95% CI)",vs placebo,1.12 (0.57-2.20)
same,"Hospitalization for unstable angina, Hazard Ratio (95% CI)",vs placebo,0.66 (0.50-0.86)
same,"Non-fatal stroke, Hazard Ratio (95% CI)",vs placebo,0.82 (0.64-1.05)
same,reduction in coronary revascularization,vs placebo,19%
same,"reduction in the composite of death from cardiovascular causes, stroke or MI",vs placebo,15%
same,reduction in the incidence of fatal or nonfatal MI,vs placebo,23%
same,"reduction in the primary composite end point (death from cardiovascular causes, stroke, MI, or coronary revascularization)",vs placebo,13%
same,"Primary efficacy endpoint (MACE-4), Hazard Ratio (95% CI)",vs placebo,0.87 (0.79-0.96)
same,"Primary efficacy endpoint (MACE-4), Hazard Ratio (95% CI)",[2],0.87
same,"Coronary revascularization, Hazard Ratio (95% CI)","vs placebo, P 0.001",0.81
same,"Fatal and non-fatal MI, Hazard Ratio (95% CI)",vs placebo,0.77 (0.66-0.91)
same,"Fatal and non-fatal MI, Hazard Ratio (95% CI)",[2],0.77
same,"3-component MACE, Hazard Ratio (95% CI)",vs placebo,0.85 (0.76-0.96)
same,"3-component MACE, Hazard Ratio (95% CI)",[2],0.85
same,"New-onset type 2 diabetes mellitus, Hazard Ratio (95% CI)","vs placebo, patients with no diabetes at baseline",0.95 (0.83-1.09)
